In article PMC9569420 (Communications Biology, 2022):
“And” between values parts separate entries of the source, which are not always exact repeats. Equal entries are not always repeated.

Assays:
ABL1 = target: T1, ABL1 (Homo sapiens, UniProt P00519); assay: biochemical
T1 construct: purchased Reaction Biology Corporation

ALK3/BMPR1A = target: T2, ALK3/BMPR1A (Homo sapiens, UniProt P36894); assay: HotSpot kinase assay; assay type: biochemical; details: read-out: % Enzyme Activity (relative to DMSO controls)
T2 construct: purchased Reaction Biology Corporation
T2 sequence (P36894 24-532): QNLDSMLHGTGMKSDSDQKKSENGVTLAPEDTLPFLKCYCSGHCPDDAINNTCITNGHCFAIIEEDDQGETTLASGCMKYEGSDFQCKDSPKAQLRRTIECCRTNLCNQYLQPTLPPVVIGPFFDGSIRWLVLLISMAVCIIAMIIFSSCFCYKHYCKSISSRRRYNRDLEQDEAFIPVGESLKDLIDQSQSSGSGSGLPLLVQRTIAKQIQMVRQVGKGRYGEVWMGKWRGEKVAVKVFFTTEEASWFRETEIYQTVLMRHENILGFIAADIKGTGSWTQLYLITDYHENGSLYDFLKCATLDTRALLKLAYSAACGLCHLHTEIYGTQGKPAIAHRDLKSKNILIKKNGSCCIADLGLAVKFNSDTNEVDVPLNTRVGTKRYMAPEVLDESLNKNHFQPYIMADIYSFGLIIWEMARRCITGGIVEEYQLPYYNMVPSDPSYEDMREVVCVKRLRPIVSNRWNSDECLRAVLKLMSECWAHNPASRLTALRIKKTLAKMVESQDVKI

ASK1/MAP3K5 = target: T3, ASK1/MAP3K5 (Homo sapiens, UniProt Q99683); assay: HotSpot kinase assay; assay type: biochemical; details: read-out: % Enzyme Activity (relative to DMSO controls)
T3 construct: purchased Reaction Biology Corporation

c-MER = target: T4, c-MER (Homo sapiens, UniProt Q12866); assay: HotSpot kinase assay; assay type: biochemical; details: read-out: % Enzyme Activity (relative to DMSO controls)
T4 construct: purchased Reaction Biology Corporation

CAMK1d = target: T5, CAMK1d (Homo sapiens, UniProt Q8IU85); assay: HotSpot kinase assay; assay type: biochemical; details: read-out: % Enzyme Activity (relative to DMSO controls)
T5 construct: purchased Reaction Biology Corporation

CDK16/cyclin Y (PCTAIRE) = target: T6, CDK16/cyclin Y (PCTAIRE) (Homo sapiens, UniProt Q00536); assay: HotSpot kinase assay; assay type: biochemical; details: read-out: % Enzyme Activity (relative to DMSO controls)
T6 construct: purchased Reaction Biology Corporation

CLK1 = target: T7, CLK1 (Homo sapiens, UniProt P49759); assay: HotSpot kinase assay; assay type: biochemical; details: read-out: % Enzyme Activity (relative to DMSO controls)
T7 construct: purchased Reaction Biology Corporation
T7 sequence (P49759 whole entry): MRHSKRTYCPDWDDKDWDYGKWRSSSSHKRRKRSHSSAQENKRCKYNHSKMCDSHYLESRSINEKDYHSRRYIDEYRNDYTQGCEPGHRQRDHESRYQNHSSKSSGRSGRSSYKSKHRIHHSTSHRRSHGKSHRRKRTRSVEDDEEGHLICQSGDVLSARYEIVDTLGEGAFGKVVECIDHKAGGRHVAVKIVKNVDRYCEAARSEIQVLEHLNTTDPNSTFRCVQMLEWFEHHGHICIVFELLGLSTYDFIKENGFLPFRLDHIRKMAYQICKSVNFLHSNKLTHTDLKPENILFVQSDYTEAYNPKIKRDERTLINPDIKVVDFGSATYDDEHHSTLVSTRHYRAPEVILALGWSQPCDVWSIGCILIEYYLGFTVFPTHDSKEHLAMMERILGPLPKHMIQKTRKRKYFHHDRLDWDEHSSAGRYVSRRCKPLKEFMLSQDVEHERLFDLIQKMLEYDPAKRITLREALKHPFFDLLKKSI

DDR2 = target: T8, DDR2 (Homo sapiens, UniProt Q16832); assay: HotSpot kinase assay; assay type: biochemical; details: read-out: % Enzyme Activity (relative to DMSO controls)
T8 construct: purchased Reaction Biology Corporation

EPHA4 = target: T9, EPHA4 (Homo sapiens, UniProt P54764); assay: HotSpot kinase assay; assay type: biochemical; details: read-out: % Enzyme Activity (relative to DMSO controls)
T9 construct: purchased Reaction Biology Corporation

EPHA7 = target: T10, EPHA7 (Homo sapiens, UniProt Q15375); assay: HotSpot kinase assay; assay type: biochemical; details: read-out: % Enzyme Activity (relative to DMSO controls)
T10 construct: purchased Reaction Biology Corporation

HIPK4 = target: T11, HIPK4 (Homo sapiens, UniProt Q8NE63); assay: HotSpot kinase assay; assay type: biochemical; details: read-out: % Enzyme Activity (relative to DMSO controls)
T11 construct: purchased Reaction Biology Corporation
T11 sequence (Q8NE63 whole entry): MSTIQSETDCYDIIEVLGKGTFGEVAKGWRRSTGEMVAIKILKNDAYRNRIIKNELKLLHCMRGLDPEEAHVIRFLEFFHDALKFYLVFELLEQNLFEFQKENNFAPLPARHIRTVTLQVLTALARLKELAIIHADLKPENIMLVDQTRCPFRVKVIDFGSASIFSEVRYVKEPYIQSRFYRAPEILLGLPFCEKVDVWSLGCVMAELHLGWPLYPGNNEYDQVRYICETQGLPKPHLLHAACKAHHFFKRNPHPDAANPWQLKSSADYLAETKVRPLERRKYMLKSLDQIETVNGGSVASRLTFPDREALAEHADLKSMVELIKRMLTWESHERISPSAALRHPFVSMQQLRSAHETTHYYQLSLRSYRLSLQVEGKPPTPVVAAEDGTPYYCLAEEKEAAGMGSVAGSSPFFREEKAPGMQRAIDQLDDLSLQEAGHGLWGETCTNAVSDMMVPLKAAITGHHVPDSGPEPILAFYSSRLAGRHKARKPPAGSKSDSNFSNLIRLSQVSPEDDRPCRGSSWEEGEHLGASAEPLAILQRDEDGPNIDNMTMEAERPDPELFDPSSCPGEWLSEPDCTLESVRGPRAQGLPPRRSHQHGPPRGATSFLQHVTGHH

IKKa/CHUK = target: T12, IKKa/CHUK (Homo sapiens, UniProt O15111); assay: HotSpot kinase assay; assay type: biochemical; details: read-out: % Enzyme Activity (relative to DMSO controls)
T12 construct: purchased Reaction Biology Corporation

KDR/VEGFR2 = target: T13, KDR/VEGFR2 (Homo sapiens, UniProt P35968); assay: HotSpot kinase assay; assay type: biochemical; details: read-out: % Enzyme Activity (relative to DMSO controls)
T13 construct: purchased Reaction Biology Corporation

LIMK1 = target: T14, LIMK1 (Homo sapiens, UniProt P53667); assay: HotSpot kinase assay; assay type: biochemical; details: read-out: % Enzyme Activity (relative to DMSO controls)
T14 construct: purchased Reaction Biology Corporation

MAK = target: T15, MAK (Homo sapiens, UniProt P20794); assay: HotSpot kinase assay; assay type: biochemical; details: read-out: % Enzyme Activity (relative to DMSO controls)
T15 construct: purchased Reaction Biology Corporation

MEKK2 = target: T16, MEKK2 (Homo sapiens, UniProt Q9Y2U5); assay: HotSpot kinase assay; assay type: biochemical; details: read-out: % Enzyme Activity (relative to DMSO controls)
T16 construct: purchased Reaction Biology Corporation

MEKK3 = target: T17, MEKK3 (Homo sapiens, UniProt Q99759); assay: HotSpot kinase assay; assay type: biochemical; details: read-out: % Enzyme Activity (relative to DMSO controls)
T17 construct: purchased Reaction Biology Corporation

MNK1 = target: T18, MNK1 (Homo sapiens, UniProt Q9BUB5); assay: HotSpot kinase assay; assay type: biochemical; details: read-out: % Enzyme Activity (relative to DMSO controls)
T18 construct: purchased Reaction Biology Corporation

MRCKb/CDC42BPB = target: T19, MRCKb/CDC42BPB (Homo sapiens, UniProt Q9Y5S2); assay: HotSpot kinase assay; assay type: biochemical; details: read-out: % Enzyme Activity (relative to DMSO controls)
T19 construct: purchased Reaction Biology Corporation

MSK2/RPS6KA4 = target: T20, MSK2/RPS6KA4 (Homo sapiens, UniProt O75676); assay: HotSpot kinase assay; assay type: biochemical; details: read-out: % Enzyme Activity (relative to DMSO controls)
T20 construct: purchased Reaction Biology Corporation
T20 sequence (O75676 whole entry): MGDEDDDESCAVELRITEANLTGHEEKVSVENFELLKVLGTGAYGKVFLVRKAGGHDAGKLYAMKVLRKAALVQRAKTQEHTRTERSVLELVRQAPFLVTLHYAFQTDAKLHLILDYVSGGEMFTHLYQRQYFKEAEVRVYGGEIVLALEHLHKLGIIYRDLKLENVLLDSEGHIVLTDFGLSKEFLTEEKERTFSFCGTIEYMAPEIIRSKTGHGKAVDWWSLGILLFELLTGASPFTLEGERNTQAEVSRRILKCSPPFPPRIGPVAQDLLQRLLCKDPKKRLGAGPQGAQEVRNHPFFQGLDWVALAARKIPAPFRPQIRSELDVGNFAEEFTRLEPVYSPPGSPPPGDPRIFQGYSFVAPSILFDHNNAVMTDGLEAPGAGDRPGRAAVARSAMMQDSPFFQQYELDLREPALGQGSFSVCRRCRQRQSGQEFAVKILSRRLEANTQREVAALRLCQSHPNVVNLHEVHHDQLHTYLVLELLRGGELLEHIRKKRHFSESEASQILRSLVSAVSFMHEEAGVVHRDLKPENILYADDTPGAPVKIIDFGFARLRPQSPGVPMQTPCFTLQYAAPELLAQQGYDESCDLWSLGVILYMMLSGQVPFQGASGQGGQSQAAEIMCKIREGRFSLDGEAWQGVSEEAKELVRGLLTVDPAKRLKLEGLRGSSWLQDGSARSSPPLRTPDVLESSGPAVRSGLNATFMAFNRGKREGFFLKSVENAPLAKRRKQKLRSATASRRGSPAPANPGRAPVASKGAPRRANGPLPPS

MST2/STK3 = target: T21, MST2/STK3 (Homo sapiens, UniProt Q13188); assay: HotSpot kinase assay; assay type: biochemical; details: read-out: % Enzyme Activity (relative to DMSO controls)
T21 construct: purchased Reaction Biology Corporation

NLK = target: T22, NLK (Homo sapiens, UniProt Q9UBE8); assay: HotSpot kinase assay; assay type: biochemical; details: read-out: % Enzyme Activity (relative to DMSO controls)
T22 construct: purchased Reaction Biology Corporation

P38a/MAPK14 = target: T23, P38a/MAPK14 (Homo sapiens, UniProt Q16539); assay: HotSpot kinase assay; assay type: biochemical; details: read-out: % Enzyme Activity (relative to DMSO controls)
T23 construct: purchased Reaction Biology Corporation

P38b/MAPK11 = target: T24, P38b/MAPK11 (Homo sapiens, UniProt Q15759); assay: HotSpot kinase assay; assay type: biochemical; details: read-out: % Enzyme Activity (relative to DMSO controls)
T24 construct: purchased Reaction Biology Corporation

PAK6 = target: T25, PAK6 (Homo sapiens, UniProt Q9NQU5); assay: HotSpot kinase assay; assay type: biochemical; details: read-out: % Enzyme Activity (relative to DMSO controls)
T25 construct: purchased Reaction Biology Corporation

PLK1 = target: T26, PLK1 (Homo sapiens, UniProt P53350); assay: HotSpot kinase assay; assay type: biochemical; details: read-out: % Enzyme Activity (relative to DMSO controls)
T26 construct: purchased Reaction Biology Corporation
T26 sequence (P53350 whole entry): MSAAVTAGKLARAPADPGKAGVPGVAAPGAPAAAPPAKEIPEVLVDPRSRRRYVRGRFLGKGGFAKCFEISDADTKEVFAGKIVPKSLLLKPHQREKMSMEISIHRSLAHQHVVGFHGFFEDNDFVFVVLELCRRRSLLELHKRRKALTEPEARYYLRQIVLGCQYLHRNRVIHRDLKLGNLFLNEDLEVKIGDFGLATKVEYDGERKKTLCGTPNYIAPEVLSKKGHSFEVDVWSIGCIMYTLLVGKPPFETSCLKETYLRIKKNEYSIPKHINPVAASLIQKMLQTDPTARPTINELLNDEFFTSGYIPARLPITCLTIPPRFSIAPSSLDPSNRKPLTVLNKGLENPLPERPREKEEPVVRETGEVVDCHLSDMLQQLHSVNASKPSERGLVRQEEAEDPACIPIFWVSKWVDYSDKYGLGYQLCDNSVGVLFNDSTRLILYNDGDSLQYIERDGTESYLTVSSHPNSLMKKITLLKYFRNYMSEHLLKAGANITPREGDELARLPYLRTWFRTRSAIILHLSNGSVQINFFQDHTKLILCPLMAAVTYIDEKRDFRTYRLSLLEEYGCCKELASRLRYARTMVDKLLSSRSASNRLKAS

RAF1 = target: T27, RAF1 (Homo sapiens, UniProt P04049); assay: HotSpot kinase assay; assay type: biochemical; details: read-out: % Enzyme Activity (relative to DMSO controls)
T27 construct: purchased Reaction Biology Corporation

RIPK2 = target: T28, RIPK2 (Homo sapiens, UniProt O43353); assay: HotSpot kinase assay; assay type: biochemical; details: read-out: % Enzyme Activity (relative to DMSO controls)
T28 construct: purchased Reaction Biology Corporation

STK32B/YANK2 = target: T29, STK32B/YANK2 (Homo sapiens, UniProt Q9NY57); assay: HotSpot kinase assay; assay type: biochemical; details: read-out: % Enzyme Activity (relative to DMSO controls)
T29 construct: purchased Reaction Biology Corporation

TAOK3/JIK = target: T30, TAOK3/JIK (Homo sapiens, UniProt Q9H2K8); assay: HotSpot kinase assay; assay type: biochemical; details: read-out: % Enzyme Activity (relative to DMSO controls)
T30 construct: purchased Reaction Biology Corporation

TEC = target: T31, TEC (Homo sapiens, UniProt P42680); assay: HotSpot kinase assay; assay type: biochemical; details: read-out: % Enzyme Activity (relative to DMSO controls)
T31 construct: purchased Reaction Biology Corporation

TESK1 = target: T32, TESK1 (Homo sapiens, UniProt Q15569); assay: HotSpot kinase assay; assay type: biochemical; details: read-out: % Enzyme Activity (relative to DMSO controls)
T32 construct: purchased Reaction Biology Corporation

EEF2K = target: T33, EEF2K (Homo sapiens, UniProt O00418); assay: HotSpot kinase assay; assay type: biochemical; details: read-out: % Enzyme Activity (relative to DMSO controls)
T33 construct: purchased Reaction Biology Corporation
T33 sequence (O00418 whole entry): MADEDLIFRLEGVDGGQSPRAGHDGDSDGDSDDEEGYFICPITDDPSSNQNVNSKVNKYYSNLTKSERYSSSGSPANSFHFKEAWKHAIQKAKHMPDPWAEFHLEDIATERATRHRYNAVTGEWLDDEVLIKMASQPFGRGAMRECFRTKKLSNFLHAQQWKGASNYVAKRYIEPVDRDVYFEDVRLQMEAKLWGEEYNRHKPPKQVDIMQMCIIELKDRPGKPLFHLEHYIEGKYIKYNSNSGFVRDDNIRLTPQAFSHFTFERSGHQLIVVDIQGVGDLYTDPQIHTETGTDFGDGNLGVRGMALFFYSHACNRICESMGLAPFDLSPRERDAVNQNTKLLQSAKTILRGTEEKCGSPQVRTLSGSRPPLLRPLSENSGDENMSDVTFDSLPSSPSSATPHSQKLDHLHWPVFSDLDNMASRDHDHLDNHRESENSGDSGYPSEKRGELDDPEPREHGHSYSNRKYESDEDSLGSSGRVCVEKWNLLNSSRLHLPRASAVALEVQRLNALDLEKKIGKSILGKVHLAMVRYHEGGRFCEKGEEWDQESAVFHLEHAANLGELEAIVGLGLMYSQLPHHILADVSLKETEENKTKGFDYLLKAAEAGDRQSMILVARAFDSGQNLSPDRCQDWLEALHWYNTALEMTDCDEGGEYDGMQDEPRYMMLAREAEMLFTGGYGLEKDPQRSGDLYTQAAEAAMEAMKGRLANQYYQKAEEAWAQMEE

HSV-2(G) [1] = assay: synchronized infection (entry) assay, HaCat cells; assay type: cell-based; details: 10 μM
Procedure: (§1) To quantify viral entry, cells were synchronously infected by allowing virus to bind to cells at 4°C for 4 h, washed, and then transferred to 37 °C. CIMSS or control DMSO was added at the time of temperature shift. At indicated times post-temperature shift, the cells were treated with a low pH buffer to inactivate virus that had not penetrated, washed, overlaid with medium containing methyl cellulose and viral plaques were counted at 48 h. Entry was also assessed by immunoblotting nuclear extracts for VP16. […] Nuclear extracts were prepared after 1 h and analyzed by western blot with antibodies targeting VP16, histone H1 and golgin-97[5]. The non-nuclear fraction was also probed for golgin-97 as a positive control. […] After 1 or 4 h of incubation, the cells were fixed. Plasma membranes were stained using Image -IT^TM LIVE Plasma Membrane kit and nuclei were stained with DAPI (Thermo Fisher Scientific, Cat 134406). The percentage of GFP + nuclei was determined by counting ~200 cells over 3–4 fields. Images were obtained with Leica SP8 microscope (objective 63 × 1.4); xz images were captured with optical slice 0.6 µm, 25–30 slices per image.

HSV-2(G) [2] = assay: synchronized infection (entry) assay, CaSki; assay type: cell-based
Procedure: as §1

T1 sequence (P00519 whole entry): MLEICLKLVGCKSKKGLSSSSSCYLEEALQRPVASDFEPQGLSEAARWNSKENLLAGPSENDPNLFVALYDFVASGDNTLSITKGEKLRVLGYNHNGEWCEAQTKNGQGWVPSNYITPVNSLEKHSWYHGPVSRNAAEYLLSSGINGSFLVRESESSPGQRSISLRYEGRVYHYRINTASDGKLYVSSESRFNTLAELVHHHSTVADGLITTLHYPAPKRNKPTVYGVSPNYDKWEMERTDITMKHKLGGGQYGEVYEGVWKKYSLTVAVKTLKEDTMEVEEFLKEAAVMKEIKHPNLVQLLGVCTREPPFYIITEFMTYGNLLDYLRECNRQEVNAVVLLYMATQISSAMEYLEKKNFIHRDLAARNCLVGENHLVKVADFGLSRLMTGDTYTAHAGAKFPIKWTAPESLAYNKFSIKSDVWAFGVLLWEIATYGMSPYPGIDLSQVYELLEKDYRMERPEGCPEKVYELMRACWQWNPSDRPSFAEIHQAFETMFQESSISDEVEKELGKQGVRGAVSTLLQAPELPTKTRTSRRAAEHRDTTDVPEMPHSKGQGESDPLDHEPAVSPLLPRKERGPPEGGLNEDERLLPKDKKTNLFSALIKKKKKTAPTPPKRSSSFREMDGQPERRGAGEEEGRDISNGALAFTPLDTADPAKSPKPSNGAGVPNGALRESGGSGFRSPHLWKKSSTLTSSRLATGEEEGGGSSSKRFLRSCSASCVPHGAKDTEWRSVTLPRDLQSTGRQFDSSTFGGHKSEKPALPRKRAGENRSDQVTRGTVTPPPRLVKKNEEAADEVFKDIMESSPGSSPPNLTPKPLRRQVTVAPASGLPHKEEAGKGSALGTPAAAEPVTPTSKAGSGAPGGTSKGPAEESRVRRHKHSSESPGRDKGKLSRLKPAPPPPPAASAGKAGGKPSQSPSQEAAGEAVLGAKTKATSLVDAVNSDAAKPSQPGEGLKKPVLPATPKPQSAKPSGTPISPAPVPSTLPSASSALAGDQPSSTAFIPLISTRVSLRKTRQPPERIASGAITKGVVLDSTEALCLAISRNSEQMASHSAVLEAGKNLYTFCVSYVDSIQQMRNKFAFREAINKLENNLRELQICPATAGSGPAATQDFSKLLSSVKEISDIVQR

CO[C@@H]1[C@H](N(C)C(=O)CCC(=O)NCc2cn(CCCS(=O)(=O)O)nn2)C[C@H]2O[C@]1(C)n1c3ccccc3c3c4c(c5c6ccccc6n2c5c31)C(=O)NC4 [CIMSS]
IC50 (ABL1; Supplementary Table 1, read-out: IC50 (Molar concentration)): 0.143 µM | remaining activity at 10 µM (ABL1; read-out: % Enzyme Activity (relative to DMSO controls), 10µM): 5.18% | remaining activity at 10 µM (ALK3/BMPR1A): 79.5% | remaining activity at 10 µM (ASK1/MAP3K5): 6.25% | remaining activity at 10 µM (c-MER): 2.17% | remaining activity at 10 µM (CAMK1d): 20.3% | remaining activity at 10 µM (CDK16/cyclin Y (PCTAIRE)): 76.6% | remaining activity at 10 µM (CLK1): 4.05% | remaining activity at 10 µM (DDR2): 1.67% | remaining activity at 10 µM (EPHA4): 30.5% | remaining activity at 10 µM (EPHA7): 6.91% | remaining activity at 10 µM (HIPK4): 10.7% | remaining activity at 10 µM (IKKa/CHUK): 31.6% | remaining activity at 10 µM (KDR/VEGFR2): 7.22% | remaining activity at 10 µM (LIMK1): 0.88% | remaining activity at 10 µM (MAK): 13.2% | remaining activity at 10 µM (MEKK2): 8.32% | remaining activity at 10 µM (MEKK3): 6.32% | remaining activity at 10 µM (MNK1): 42.6% | remaining activity at 10 µM (MRCKb/CDC42BPB): 75.8% | remaining activity at 10 µM (MSK2/RPS6KA4): 2.11% | remaining activity at 10 µM (MST2/STK3): 3.52% | remaining activity at 10 µM (NLK): 73% | remaining activity at 10 µM (P38a/MAPK14): 102% | remaining activity at 10 µM (P38b/MAPK11): 84.5% | remaining activity at 10 µM (PAK6): 9.79% | remaining activity at 10 µM (PLK1): 17.1% | remaining activity at 10 µM (RAF1): 111% | remaining activity at 10 µM (RIPK2): 41.7% | remaining activity at 10 µM (STK32B/YANK2): 0.96% | remaining activity at 10 µM (TAOK3/JIK): 12.8% | remaining activity at 10 µM (TEC): 19.9% | remaining activity at 10 µM (TESK1): 83% | remaining activity at 10 µM (EEF2K): 99.5% | plaques counted at 48 h (HSV-2(G) [1]; 1 h post-temperature shift): 11 and 17 | plaques counted at 48 h (HSV-2(G) [1]; 2 h post-temperature shift): 19 and 11 | viral plaque formation (HSV-2(G) [1]; each timepoint 0.5–2 h, p < 0.001): significant reduction | plaques counted at 48 h (HSV-2(G) [2]; 0.5 h post-temperature shift (Fig 3b source data)): 49 and 51 | plaques counted at 48 h (HSV-2(G) [2]; 1 h): 48 and 46 | plaques counted at 48 h (HSV-2(G) [2]; 2 h): 52 and 37
